Assay results reported in ChEMBL document CHEMBL3301361, “Experimental in vitro DMPK and physicochemical data on a set of publicly disclosed compounds”.
In brackets after ≈: the same amount, converted by molar mass.

Columns and labels:
[1] = in vitro; settings: human, hepatocytes
[2] = in vitro; settings: hepatocytes
[3] = in vitro; settings: human
[4] = in vitro; settings: human, plasma, PPB
[5] = in vitro; settings: SD, HW or BN, rat, plasma
[6] = physchem; settings: octan-1-ol/water, pH 7.4, LogD7.4
[7] = physchem; settings: pH 7.4 buffer

SMILES | hepatocyte CLint [1] [µL/min/1e6 cells] | hepatocyte CLint [2] [µL/min/1e6 cells] | microsomal CLint ([3]; liver microsomes) [µL/min/mg] | fraction unbound at 5 h [4] | fraction unbound at 5 h [5] | logD [6] | microsomal CLint ([3]; microsomes) [µL/min/mg] | solubility thermodynamic [7] [µM]
CCS(=O)(=O)CCCC12CCC(c3nnc(-c4ccccc4C(F)(F)F)n3C)(CC1)CC2 [MK-0736] | < 3 | < 3 | < 3 |  |  |  |  | 
C[C@H](CO)Nc1nc(SCc2ccccc2F)nc2nc(N)sc12 | 5.75 | 19 |  |  |  | 3.12 | 8.13 | 
O=C(O)COc1ccc(C(F)(F)F)cc1CN1CCN(S(=O)(=O)c2ccccc2)CC1 | < 3 | < 3 | 6.33 |  |  |  |  | 
CC1CNC(Nc2c(Cl)cccc2Cl)=N1 (configuration not stated) | < 3 |  |  |  | 0.64 |  |  | 
CCC1(C2=NCCN2)Cc2ccccc2O1 (configuration not stated) [EFAROXAN] | < 3 |  |  |  | 0.76 |  |  | 
Cn1sc(=O)c2cc(S(N)(=O)=O)ccc21 | 27.5 | 17.4 |  |  |  | 0.3 |  | 
CCOC(=O)/C=C/[C@H](C[C@@H]1CCNC1=O)NC(=O)[C@@H](CC(=O)[C@@H](NC(=O)c1cc(C)on1)C(C)C)Cc1ccc(F)cc1 | 40.7 | > 150 | 105 |  |  | 2.8 |  | 
C[C@H]1C[C@@H]2[C@H]([C@@H](O)C[C@@]3(C)[C@H]2CC[C@]3(O)C(=O)CO)[C@@]2(C)C=CC(=O)C=C12 [METHYLPREDNISOLONE] | 9.12 | > 150 |  | 0.201 |  | 2.12 |  | 
CCCN1CCCC[C@H]1C(=O)Nc1c(C)cccc1C [ROPIVACAINE] | 15.5 |  |  |  | 0.511 |  |  | 
CO[C@H]1C[C@@H]2CC[C@@H](C)[C@@](O)(O2)C(=O)C(=O)N2CCCC[C@H]2C(=O)O[C@H]([C@H](C)C[C@@H]2CC[C@@H](O)[C@H](OC)C2)CC(=O)[C@H](C)/C=C(\C)[C@@H](O)[C@@H](OC)C(=O)[C@H](C)C[C@H](C)/C=C/C=C/C=C/1C [SIROLIMUS] | 50.1 | > 150 |  |  |  |  |  | 
CCc1cccc2cc(C(O)CNC(C)(C)C)oc12 (configuration not stated) [BUFURALOL] | 8.71 | > 150 |  | 0.0801 |  |  |  | 
CCCCNC(=O)NS(=O)(=O)c1ccc(C)cc1 [TOLBUTAMIDE] | 6.31 | 6.61 |  |  |  |  | 6.31 | 
N#CCC(CNc1ncc(C(F)(F)F)cc1Cl)OC(=O)c1c(F)cccc1F (configuration not stated) | > 150 | > 150 | > 150 |  |  |  |  | 
O=c1[nH]c2ccccc2n1C1CCN(Cc2ccc(-c3nc4ccccc4cc3-c3ccccc3)cc2)CC1 | < 3 | 35.5 |  |  |  |  |  | 
COC(=O)C1=C(C)NC(C)=C(C(=O)OC(C)C)[C@@H]1c1cccc2nonc12 [(R)-ISRADIPINE] | 126 | > 150 |  |  |  | 3.77 |  | 
COc1ccccc1-c1csc(-n2ncc(C#N)c2N)n1 | 55 |  |  | 0.591 | 0.529 |  |  | 
NC1(c2ccc(-c3nc4ccccn4c3-c3ccccc3)cc2)CCC1 | 18.2 | > 150 |  |  |  |  |  | 
Cc1nn(C)c2cc(N3CCN(C(=O)[C@@H]4CCCC[C@H]4C(=O)NC4(C#N)CC4)[C@H](C)C3)ccc12 | 7.41 | 8.13 |  |  |  |  |  | 
C=CCc1ccccc1OCC(O)CNC(C)C (configuration not stated) [ALPRENOLOL] | 13.2 | > 150 |  |  |  | 0.99 |  | 
O=C(Nc1nc2ccccc2s1)c1ccccc1 | 77.6 | 64.6 |  |  |  |  | > 150 | 
CC(CO)(CO)Nc1nc(SCc2cccc(F)c2F)nc2nc(N)sc12 | 4.92 | 7 |  | 0.129 |  | 2.87 |  | 
Cc1oncc1C(=O)Nc1ccc(C(F)(F)F)cc1 [LEFLUNOMIDE] | < 3 | 24 |  |  |  | 3.9 |  | 67.6 (≈ 18.3 µg/mL)
C[C@@H]1CN(C(=O)N[C@H](Cc2ccc(F)cc2)C(=O)N2CCC(C(=O)NC(C)(C)C)(C3CCCCC3)CC2)C[C@H](C)N1 | 10.7 |  |  |  | 0.0872 |  |  | 
CCOc1ccc2ccc(=O)oc2c1 [ETHOXYCOUMARIN] | 35.5 | 64.6 |  |  |  | 2.2 |  | 1000 (≈ 190 µg/mL)
O=c1[nH]c2c(O)ccc([C@@H](O)CNCCc3ccc(CNCCc4ccccn4)cc3)c2s1 | < 3 |  |  |  | 0.483 | -0.25 |  | 
COc1ccccc1Oc1c(NS(=O)(=O)c2ccc(C(C)(C)C)cc2)nc(-c2ncccn2)nc1OCCO [BOSENTAN] | 4.79 |  | 15.1 | 0.013 | 0.0122 | 1.03 |  | 

Second part, the compound after the results:

hepatocyte CLint [1] [µL/min/1e6 cells] | hepatocyte CLint [2] [µL/min/1e6 cells] | microsomal CLint ([3]; liver microsomes) [µL/min/mg] | fraction unbound at 5 h [4] | fraction unbound at 5 h [5] | logD [6] | microsomal CLint ([3]; microsomes) [µL/min/mg] | solubility thermodynamic [7] [µM] | SMILES
3.55 | 21.9 |  |  |  |  |  |  | C#Cc1cccc(Nc2ncnc3cc4c(cc23)OCCOCCOCCO4)c1 [ICOTINIB]
22.4 |  | 52.5 | 0.0007 | 0.0008 | 3.7 |  |  | CCC[C@H](CO)Nc1nc(S[C@@H](C)c2cccc(C#N)c2)nc2[nH]c(=O)sc12
4.9 | 13.2 |  | 0.204 |  | 1.83 |  | 151 (≈ 55.4 µg/mL) | CC1Cc2ccccc2N1NC(=O)c1ccc(Cl)c(S(N)(=O)=O)c1 (configuration not stated) [INDAPAMIDE]
> 150 | > 150 |  |  |  | 2.6 |  |  | COC(=O)c1ccc(C)c(NS(=O)(=O)c2ccc3c(c2)c(=O)sn3C)c1
< 3 | 16.2 |  |  |  |  |  |  | NC1(c2ccc(-c3ncc4nccn4c3-c3ccccc3)cc2)CCC1
24.6 |  |  |  | 0.0018 |  |  |  | O=S(=O)(Nc1ccc2sc(CO)nc2c1)c1ccc(Br)cc1
< 3 | 15 |  | 0.197 |  | 2.56 |  |  | N#Cc1ccc(OC2CCN(C[C@H](O)CNC(=O)c3c[nH]c(=O)c4ccccc34)CC2)cc1Cl
19.9 |  |  | 0.0009 | 0.0119 |  |  |  | O=C(CCCc1ccc2cccnc2n1)NCc1cc(-c2ccc(F)c(C(F)(F)F)c2)no1
7.76 | > 150 |  |  |  |  |  |  | NC1(c2ccc(-c3nn4ccnc4cc3-c3ccccc3)cc2)CCC1
26.3 |  |  |  | 0.0262 |  | 41.7 |  | COc1ccccc1OCCNCC(O)COc1cccc2[nH]c3ccccc3c12 (configuration not stated) [CARVEDILOL]
28.8 | 87.1 |  |  |  | 3.7 |  | 0.5 (≈ 0.28 µg/mL) | CCN1CCN(c2ccc(Nc3cc(N(C)C(=O)Nc4c(Cl)c(OC)cc(OC)c4Cl)ncn3)cc2)CC1 [INFIGRATINIB]
3.31 | 79.4 |  |  |  | 3.9 |  | 1 (≈ 0.495 µg/mL) | C=CC(=O)Nc1cccc(Oc2nc(Nc3ccc(N4CCN(C)CC4)cc3OC)ncc2Cl)c1
< 3 |  |  |  | 0.0183 | 2.8 |  | 21.4 (≈ 10.2 µg/mL) | CNC(=O)c1ccc(C)c(-n2c(C)cc(OCc3ccc(F)cc3F)c(Br)c2=O)c1 [PH-797804]
< 3 | 72.4 |  |  |  |  |  |  | Cc1ccc(NC(=O)c2cccc(N(C)S(C)(=O)=O)c2)cc1NC(=O)c1ccc2ncccc2c1
< 3 | 5.37 |  |  |  | 1.2 |  | 1.7 (≈ 0.642 µg/mL) | CS(=O)(=O)N1CCc2c(-c3cnc(N)nc3)nc(N3CCOCC3)nc21 [IZORLISIB]
